Test results reported in publication PMC10916402, “Meropenem-ANT3310, a unique β-lactam-β-lactamase inhibitor combination with expanded antibacterial spectrum against Gram-negative pathogens including carbapenem-resistant Acinetobacter baumannii” (Antimicrobial Agents and Chemotherapy, 2024).
≈ marks a conversion by molar mass, not a printed value. Where two headings read alike, the source gives them in different places.

Assays:
[1] = system: Enterobacterales, P. aeruginosa and A. baumannii clinical isolates; assay: Intrinsic antibacterial activity of ANT3310 alone, all 1,207 isolates; format: cell-based
Experimental: (§1) All isolates were randomly selected from the frozen culture collection of IHMA collected in 2018 and 2019. Matrix-assisted laser desorption ionization-time of flight mass spectrometry was used to confirm the identity of the organisms tested (Bruker Daltonics, Bremen, Germany).
(§2) MICs for all antimicrobial agents were determined at IHMA by broth microdilution in accordance with both CLSI ([17]) and EUCAST ([18]) guidelines. Microtiter panels were prepared by IHMA and stored at −70°C in cation-adjusted Mueller Hinton broth (CAMHB) (Becton Dickinson). Iron-depleted CAMHB was used to test cefiderocol. Panels containing ANT3310 were prepared fresh on the day of testing. […] MIC values corresponded to the first well with no visible growth. Quality control testing was performed on each day of testing with E. coli ATCC 25922, P. aeruginosa ATCC 27853, K. pneumoniae ATCC 700603 and BAA 1705, and A. baumannii NCTC 13304. MICs were interpreted using 2023 CLSI ([17]) and EUCAST ([18]) BPs.

[2] = system: OXA- or KPC-Enterobacterales clinical isolates; assay: Broth microdilution MIC, OXA- or KPC-positive Enterobacterales; format: cell-based
Experimental: as §1, §2

[3] = system: A. baumannii clinical isolates; assay: Broth microdilution MIC, A. baumannii clinical isolates; format: cell-based, Acinetobacter baumannii; conditions: for MIC50: read-out: MIC50
Experimental: as §1, §2

KPC-2 = KPC-2 (Klebsiella pneumoniae, UniProt Q9F663); assay: In vitro SBL inhibition assay (nitrocefin hydrolysis), IC50; format: biochemical
Experimental: (§3) Nitrocefin (Sigma-Aldrich, St Louis, MO, USA), a chromogenic cephalosporin antibiotic (λ, 482 nm; εM, 15,000 M^−1.cm^−1), was used as a reporter substrate at 100 µM for KPC-2, OXA-23, and OXA-48, at 200 µM for OXA-24 and OXA-51, and at 50 µM for OXA-58. Enzymes were preincubated in the presence of varying concentrations of each compound (0.006 to 3000 nM, diluted twofold in dimethyl sulfoxide (DMSO) for KPC-2, OXA-23, and OXA-48 assays and 0.51 to 10,000 nM diluted threefold in DMSO for OXA-24, OXA-51, and OXA-58) for 10 min at 30°C. Nitrocefin was then added and its hydrolysis by the uninhibited enzyme fraction was followed at an absorbance wavelength of 482 nm for 10 min at 30°C using Envision UV fluorescence plate reader (Perkin Elmer, Waltham, MA, USA). Hydrolysis rate data were used to determine inhibitory activities, expressed in IC50 values [corresponding to the compound concentration (µM) required to inhibit 50% of enzymatic reaction].

OXA-24/40 = OXA-24/40 (Acinetobacter baumannii, UniProt Q8RLA6); assay: as above; format: biochemical; conditions: 10 min preincubation, 30°C, read-out: Enzyme IC50
Experimental: as §3

OXA-48 = OXA-48 (Klebsiella pneumoniae, UniProt Q6XEC0); assay: as above; format: biochemical; conditions: 10 min preincubation, 30°C, read-out: Enzyme IC50
Experimental: as §3

OXA-23 = OXA-23 (Acinetobacter baumannii, UniProt Q9L4P2); assay: as above; format: biochemical; conditions: 10 min preincubation, 30°C, read-out: Enzyme IC50
Experimental: as §3

OXA-51 = OXA-51 (Acinetobacter baumannii, UniProt Q5QT35); assay: as above; format: biochemical, A. baumannii; conditions: 10 min preincubation, 30°C, read-out: Enzyme IC50
Experimental: as §3

OXA-58 = OXA-58 (Acinetobacter baumannii, UniProt Q2TR58); assay: as above; format: biochemical, A. baumannii
Experimental: as §3

[4] = system: P. aeruginosa clinical isolates; assay: Broth microdilution MIC, P. aeruginosa clinical isolates; format: cell-based, Pseudomonas aeruginosa; conditions: ANT3310 alone, P. aeruginosa N 502
Experimental: as §1, §2

[5] = system: A. baumannii ACC00445 (OXA-23); assay: MIC against the isolate used in the infection models; format: cell-based; conditions: Acinetobacter baumannii
Experimental: as §2

[6] = system: KPC-producing Enterobacterales (KPC-CRE); assay: organism not typed; format: cell-based
Experimental: as §1, §2

[7] = system: OXA-producing Enterobacterales (OXA-CRE); assay: organism not typed; format: cell-based
Experimental: as §1, §2

[8] = system: carbapenem-resistant Acinetobacter baumannii (CRAB) clinical isolates; assay: Broth microdilution MIC, CRAB isolates; format: cell-based; conditions: 2018 Global collection, CRAB (MEM MICs >4 µg/mL), N 363
Experimental: as §1, §2

[9] = ANT3310 alone, OXA- or KPC-Enterobacterales N 300
[10] = ANT3310 alone, A. baumannii N 405
[11] = 2018 Global collection, All A. baumannii, N 500

Chain of OXA-58 (Q2TR58 19-280): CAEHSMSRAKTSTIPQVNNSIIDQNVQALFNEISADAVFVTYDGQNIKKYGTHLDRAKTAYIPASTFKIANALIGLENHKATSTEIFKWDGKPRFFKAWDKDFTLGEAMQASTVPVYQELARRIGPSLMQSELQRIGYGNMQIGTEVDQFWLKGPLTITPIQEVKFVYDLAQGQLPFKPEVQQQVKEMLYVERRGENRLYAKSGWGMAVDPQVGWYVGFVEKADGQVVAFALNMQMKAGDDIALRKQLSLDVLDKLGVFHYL
Chain of OXA-23 (Q9L4P2 18-273): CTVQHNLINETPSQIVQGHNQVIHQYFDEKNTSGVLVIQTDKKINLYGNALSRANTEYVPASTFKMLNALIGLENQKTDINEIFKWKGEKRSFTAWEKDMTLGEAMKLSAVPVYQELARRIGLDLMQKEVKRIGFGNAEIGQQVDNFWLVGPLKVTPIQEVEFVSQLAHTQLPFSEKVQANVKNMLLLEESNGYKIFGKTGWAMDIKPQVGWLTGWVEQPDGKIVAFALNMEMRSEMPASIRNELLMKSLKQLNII
Chain of OXA-24/40 (Q8RLA6 22-275): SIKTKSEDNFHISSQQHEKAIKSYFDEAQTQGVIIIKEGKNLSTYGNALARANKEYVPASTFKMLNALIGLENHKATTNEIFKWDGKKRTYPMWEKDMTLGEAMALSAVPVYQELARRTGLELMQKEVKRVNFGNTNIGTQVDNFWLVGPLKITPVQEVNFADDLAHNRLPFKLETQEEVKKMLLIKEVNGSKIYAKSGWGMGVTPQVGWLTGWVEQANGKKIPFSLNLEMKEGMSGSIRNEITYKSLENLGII
Chain of OXA-48 (Q6XEC0 23-265, looked up, species assumed): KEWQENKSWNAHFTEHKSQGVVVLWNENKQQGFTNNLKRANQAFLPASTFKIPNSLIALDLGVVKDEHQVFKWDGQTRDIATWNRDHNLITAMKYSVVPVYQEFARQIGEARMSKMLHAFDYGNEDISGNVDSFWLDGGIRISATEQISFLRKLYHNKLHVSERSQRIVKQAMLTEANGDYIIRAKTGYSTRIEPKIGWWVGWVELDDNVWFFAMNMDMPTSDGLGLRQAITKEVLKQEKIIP
Chain of KPC-2 (Q9F663 25-293 limits assumed): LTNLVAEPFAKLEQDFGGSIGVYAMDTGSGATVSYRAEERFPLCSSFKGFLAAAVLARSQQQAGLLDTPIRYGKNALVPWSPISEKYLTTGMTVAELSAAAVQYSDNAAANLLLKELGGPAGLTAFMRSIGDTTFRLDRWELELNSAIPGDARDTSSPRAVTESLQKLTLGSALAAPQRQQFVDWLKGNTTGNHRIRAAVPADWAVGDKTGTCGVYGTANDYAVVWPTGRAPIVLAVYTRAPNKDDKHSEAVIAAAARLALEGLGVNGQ
Chain of OXA-51 (Q5QT35 entry or part of it): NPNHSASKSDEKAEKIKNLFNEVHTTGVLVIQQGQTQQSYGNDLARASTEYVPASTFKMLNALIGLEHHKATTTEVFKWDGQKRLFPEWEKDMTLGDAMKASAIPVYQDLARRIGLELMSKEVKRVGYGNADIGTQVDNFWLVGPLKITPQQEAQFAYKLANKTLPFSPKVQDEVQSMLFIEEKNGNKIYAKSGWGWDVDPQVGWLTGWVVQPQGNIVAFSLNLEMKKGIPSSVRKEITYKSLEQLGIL

For `O=C1N2C[C@@H](CC[C@H]2F)N1OS(=O)(=O)O` [ANT3310], the Intrinsic antibacterial activity ([1]; ANT3310 alone, 1,207 isolates) was “No clinically significant antibacterial activity”, the “Number of isolates with ANT3310 MICs ≤8 µg/mL” value ([1]; of the 1,207 isolates tested, ANT3310 alone) was 6 and the MIC50 [2] was > 64 µg/mL. For the same molecule, the MIC90 [2] was > 64 µg/mL, the MIC50 [2, 9] was >64 µg/mL and the MIC90 [2, 9] was >64 µg/mL. For the same molecule, the “Number of isolates inhibited at MIC of 8 µg/mL” value [2, 9] was 1, the “Number of isolates inhibited at MIC of 32 µg/mL” value [2, 9] was 8 and the “Number of isolates inhibited at MIC of 64 µg/mL” value [2, 9] was 234. For the same molecule, the “Number of isolates inhibited at MIC of >64 µg/mL” value [2, 9] was 57, the MIC90 [3, 10] was >64 µg/mL and the “Number of isolates inhibited at MIC of 4 µg/mL” value [3, 10] was 1. For the same molecule, the “Number of isolates inhibited at MIC of 8 µg/mL” value [3, 10] was 4, the “Number of isolates inhibited at MIC of 16 µg/mL” value [3, 10] was 1 and the “Number of isolates inhibited at MIC of 32 µg/mL” value [3, 10] was 11. For the same molecule, the “Number of isolates inhibited at MIC of 64 µg/mL” value [3, 10] was 38, the “Number of isolates inhibited at MIC of >64 µg/mL” value [3, 10] was 350 and the MIC50 ([3]; Acinetobacter baumannii, ANT3310 alone, A. baumannii N 405) was 64 µg/mL (≈ 266 µM). For the same molecule, the MIC90 ([3]; Acinetobacter baumannii, ANT3310 alone, A. baumannii N 405, read-out: MIC90) was > 64 µg/mL, the IC50 (KPC-2) was 19.5 nM and the IC50 (OXA-24/40) was 602 nM. It also gave an IC50 (OXA-48) of 179 nM, an IC50 (OXA-23) of 32.6 nM and an IC50 (OXA-51) of 542 nM. For the same molecule, the IC50 (OXA-58) was 8 nM, the MIC50 [4] was >64 µg/mL and the MIC90 [4] was >64 µg/mL. For the same molecule, the “Number of isolates inhibited at MIC of 16 µg/mL” value [4] was 2, the “Number of isolates inhibited at MIC of 32 µg/mL” value [4] was 9 and the “Number of isolates inhibited at MIC of 64 µg/mL” value [4] was 15. For the same molecule, the “Number of isolates inhibited at MIC of >64 µg/mL” value [4] was 476, the MIC50 ([4]; Pseudomonas aeruginosa, read-out: MIC50) was > 64 µg/mL and the MIC90 ([4]; Pseudomonas aeruginosa, read-out: MIC90) was > 64 µg/mL.

`CN(C)c1cc(NC(=O)CNC(C)(C)C)c(O)c2c1C[C@H]1C[C@H]3[C@H](N(C)C)C(O)=C(C(N)=O)C(=O)[C@@]3(O)C(O)=C1C2=O` [Tigecycline, tigecycline] was tested, and the MIC [5] was 2 µg/mL (≈ 3.41 µM), the MIC50 [6] was 1 µg/mL (≈ 1.71 µM) and the MIC90 [6] was 4 µg/mL (≈ 6.83 µM). For the same molecule, the MIC50 [7] was 2 µg/mL (≈ 3.41 µM), the MIC90 [7] was 4 µg/mL (≈ 6.83 µM) and the “Number of isolates inhibited at MIC of 0.25 µg/mL” value [3, 11] was 40. For the same molecule, the “Number of isolates inhibited at MIC of 0.5 µg/mL” value [3, 11] was 41, the “Number of isolates inhibited at MIC of 1 µg/mL” value [3, 11] was 76 and the “Number of isolates inhibited at MIC of 2 µg/mL” value [3, 11] was 162. For the same molecule, the “Number of isolates inhibited at MIC of 4 µg/mL” value [3, 11] was 140, the “Number of isolates inhibited at MIC of 8 µg/mL” value [3, 11] was 31 and the “Number of isolates inhibited at MIC of 16 µg/mL” value [3, 11] was 4. The “Number of isolates inhibited at MIC of ≤0.125 µg/mL” value [3, 11] was 6, the MIC50 ([3]; Acinetobacter baumannii, 2018 Global collection, All A. baumannii, N 500) was 2 µg/mL (≈ 3.41 µM) and the MIC90 ([3]; Acinetobacter baumannii, 2018 Global collection, All A. baumannii, N 500, read-out: MIC90) was 4 µg/mL (≈ 6.83 µM). The MIC90 ([3]; Acinetobacter baumannii, A. baumannii, one or both of the 2018/2019 collections, read-out: MIC90) was 4 µg/mL (≈ 6.83 µM), the “Number of isolates inhibited at MIC of 0.5 µg/mL” value [8] was 7 and the “Number of isolates inhibited at MIC of 1 µg/mL” value [8] was 48. The “Number of isolates inhibited at MIC of 2 µg/mL” value [8] was 146, the “Number of isolates inhibited at MIC of 4 µg/mL” value [8] was 131 and the “Number of isolates inhibited at MIC of 8 µg/mL” value [8] was 28. The “Number of isolates inhibited at MIC of 16 µg/mL” value [8] was 3, the MIC50 ([8]; Acinetobacter baumannii, read-out: MIC50) was 2 µg/mL (≈ 3.41 µM) and the MIC90 ([8]; Acinetobacter baumannii, read-out: MIC90) was 4 µg/mL (≈ 6.83 µM).
